According to patent US20080009418A1, “Selective Inhibitors” (Alchemia LTD., priority 2004, published 2008):

Columns and labels:
[1] = molecular target: T1, Human δ-opioid (DOP) (Homo sapiens, UniProt P41143); test: Radioligand binding, human δ-opioid (DOP) membranes, FlashPlate, [3H]-Bremazocine; conditions: compound at 10 μM, [3H]-Bremazocine
T1 construct: purchased Perkin Elmer Biosignal
How it was run: (§1)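 Cloned human receptor membranes were coated onto FlashPlate wells and incubated with radioligand and compound (added from a 0.5 mM DMSO daughter plate) for 1 hour at room temperature in the dark. Scintillation counting gave percent inhibition, with DMSO defining total and reference ligand defining non-specific binding.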

[2] = molecular target: T2, Human κ-Opioid (KOP) (Homo sapiens, UniProt P41145); test: Radioligand binding, human κ-opioid (KOP) membranes, filtration, [3H]-Diprenorphine; conditions: compound at 10 μM, [3H]-Diprenorphine
T2 construct: purchased Perkin Elmer Biosignal
How it was run: (§2)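 Filtration binding on cloned human receptor membranes (1 Unit/well), [125I]-Substance P for NK1 and [3H]-Diprenorphine for KOP, 1 h at room temperature. Filters PEI-presoaked, washed with cold 50 mM Tris-HCl pH 7.4, counted by scintillation; percent inhibition calculated, reference ligand defining non-specific binding.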

[3] = molecular target: T3, Human Melanocortin (MC3) (Homo sapiens, UniProt P41968); test: Radioligand binding, human melanocortin MC3 membranes, FlashPlate, [125I]-NDP-αMSH; conditions: compound at 10 μM, [125I]-NDP-αMSH
T3 construct: purchased Perkin Elmer Biosignal
How it was run: as §1

[4] = molecular target: T4, Human Melanocortin (MC4) (Homo sapiens, UniProt P32245); test: Radioligand binding, human melanocortin MC4 membranes, FlashPlate, [125I]-NDP-αMSH; conditions: compound at 10 μM, [125I]-NDP-αMSH
T4 construct: purchased Perkin Elmer Biosignal
How it was run: as §1

[5] = molecular target: T5, Human melanocortin (MC5) (Homo sapiens, UniProt P33032); test: Radioligand binding, human melanocortin MC5 membranes, FlashPlate, [125I]-NDP-αMSH; conditions: compound at 10 μM, [125I]-NDP-αMSH
T5 construct: purchased Perkin Elmer Biosignal
How it was run: as §1

[6] = molecular target: T6, Human melanin-concentrating hormone (MCH1) (Homo sapiens, UniProt Q99705); test: Radioligand binding, human melanin-concentrating hormone MCH1 membranes, FlashPlate, [125I]-S36057; conditions: compound at 10 μM; for A6: inhibition of radioligand binding, human melanin-concentrating hormone (MCH1): [125I]-S36057
T6 construct: purchased Perkin Elmer Biosignal
How it was run: as §1

[7] = molecular target: T7, Human μ-opioid (MOP) (Homo sapiens, UniProt P35372); test: Radioligand binding, human μ-opioid (MOP) membranes, FlashPlate, [3H]-Naloxone; conditions: compound at 10 μM, [3H]-Naloxone
T7 construct: purchased Perkin Elmer Biosignal
How it was run: as §1

[8] = molecular target: T8, Human neurokinin (NK1) (Homo sapiens, UniProt P25103); test: Radioligand binding, human neurokinin NK1 membranes, filtration, [125I]-Substance P; conditions: compound at 10 μM, [125I]-Substance P
T8 construct: purchased Perkin Elmer Biosignal
How it was run: as §2

[9] = molecular target: T9, Human neuropeptide Y (NPY-Y1) (Homo sapiens, UniProt P25929); test: Radioligand binding, human neuropeptide Y NPY-Y1 membranes, FlashPlate, [125I]-PYY; conditions: compound at 10 μM, [125I]-PYY
T9 construct: purchased Perkin Elmer Biosignal
T9 sequence (P25929 1-384): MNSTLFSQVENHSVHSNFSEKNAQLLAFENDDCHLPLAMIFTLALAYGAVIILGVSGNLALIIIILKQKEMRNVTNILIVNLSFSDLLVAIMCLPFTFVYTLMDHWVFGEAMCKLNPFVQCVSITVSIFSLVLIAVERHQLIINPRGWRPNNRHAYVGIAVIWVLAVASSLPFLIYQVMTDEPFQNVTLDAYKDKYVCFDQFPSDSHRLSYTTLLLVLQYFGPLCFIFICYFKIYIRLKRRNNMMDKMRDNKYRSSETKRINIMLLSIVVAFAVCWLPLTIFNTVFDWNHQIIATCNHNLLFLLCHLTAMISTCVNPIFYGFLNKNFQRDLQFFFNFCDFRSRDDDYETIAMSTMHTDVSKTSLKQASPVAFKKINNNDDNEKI
How it was run: as §1

[10] = molecular target: T10, Human opioid (ORL1) (Homo sapiens, UniProt P41146); test: Radioligand binding, human opioid ORL1 membranes, FlashPlate, [125I]-Nociceptin; conditions: compound at 10 μM, [125I]-Nociceptin
T10 construct: purchased Perkin Elmer Biosignal
How it was run: as §1

[11] = molecular target: T11, Mouse urotensin (mUR2) (Mus musculus, UniProt Q8VIH9); test: Radioligand binding, mouse urotensin mUR2 membranes, FlashPlate, [125I]-Urotensin II; conditions: compound at 10 μM, [125I]-Urotensin II
T11 construct: purchased Perkin Elmer Biosignal
T11 sequence (Q8VIH9 1-385): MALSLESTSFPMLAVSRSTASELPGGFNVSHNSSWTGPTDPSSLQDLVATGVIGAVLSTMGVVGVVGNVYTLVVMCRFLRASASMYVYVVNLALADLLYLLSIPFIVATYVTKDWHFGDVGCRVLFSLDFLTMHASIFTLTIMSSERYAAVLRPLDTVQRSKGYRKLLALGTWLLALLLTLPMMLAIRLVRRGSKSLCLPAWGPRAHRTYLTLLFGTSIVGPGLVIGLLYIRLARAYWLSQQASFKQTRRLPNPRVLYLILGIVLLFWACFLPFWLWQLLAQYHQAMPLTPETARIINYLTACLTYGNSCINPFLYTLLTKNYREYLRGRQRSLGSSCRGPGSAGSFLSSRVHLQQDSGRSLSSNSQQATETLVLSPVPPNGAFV
How it was run: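 Cloned mouse urotensin (mUR2) receptor membranes from Perkin Elmer Biosignal were immobilized in FlashPlate microplates using a proprietary coating. Each well got 19.5 μl buffer, then 0.5 μl of DMSO, reference ligand, or compound. Adding 5 μl of [125I]-Urotensin II, diluted to 5× final concentration in binding buffer, started binding. Plates were sealed with TopSeal-A and incubated 1 hour at room temperature in the dark. Wells were counted for 30 seconds each on a TopCount after a 60-second delay, and percentage inhibition was calculated.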

T6 sequence (Q99705 whole entry): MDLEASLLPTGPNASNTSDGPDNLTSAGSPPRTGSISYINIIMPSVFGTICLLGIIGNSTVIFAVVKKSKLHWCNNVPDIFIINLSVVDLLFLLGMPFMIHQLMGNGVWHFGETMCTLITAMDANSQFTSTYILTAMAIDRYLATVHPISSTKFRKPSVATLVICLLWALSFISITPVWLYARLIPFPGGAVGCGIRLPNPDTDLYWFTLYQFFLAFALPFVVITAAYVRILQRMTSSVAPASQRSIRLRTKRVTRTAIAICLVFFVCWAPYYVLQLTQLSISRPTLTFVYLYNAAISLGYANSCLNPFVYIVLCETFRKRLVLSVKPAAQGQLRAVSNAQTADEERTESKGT
T2 sequence (P41145 whole entry): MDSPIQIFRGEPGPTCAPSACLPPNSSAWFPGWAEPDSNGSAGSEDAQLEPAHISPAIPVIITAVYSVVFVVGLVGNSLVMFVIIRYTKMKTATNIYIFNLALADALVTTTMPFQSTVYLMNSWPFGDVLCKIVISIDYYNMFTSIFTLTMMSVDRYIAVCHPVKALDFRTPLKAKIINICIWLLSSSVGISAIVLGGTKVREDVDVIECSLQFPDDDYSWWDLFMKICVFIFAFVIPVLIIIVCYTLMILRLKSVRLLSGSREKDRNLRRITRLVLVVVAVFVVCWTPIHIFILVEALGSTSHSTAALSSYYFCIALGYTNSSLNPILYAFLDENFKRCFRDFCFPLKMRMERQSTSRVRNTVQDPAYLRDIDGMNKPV
T8 sequence (P25103 whole entry): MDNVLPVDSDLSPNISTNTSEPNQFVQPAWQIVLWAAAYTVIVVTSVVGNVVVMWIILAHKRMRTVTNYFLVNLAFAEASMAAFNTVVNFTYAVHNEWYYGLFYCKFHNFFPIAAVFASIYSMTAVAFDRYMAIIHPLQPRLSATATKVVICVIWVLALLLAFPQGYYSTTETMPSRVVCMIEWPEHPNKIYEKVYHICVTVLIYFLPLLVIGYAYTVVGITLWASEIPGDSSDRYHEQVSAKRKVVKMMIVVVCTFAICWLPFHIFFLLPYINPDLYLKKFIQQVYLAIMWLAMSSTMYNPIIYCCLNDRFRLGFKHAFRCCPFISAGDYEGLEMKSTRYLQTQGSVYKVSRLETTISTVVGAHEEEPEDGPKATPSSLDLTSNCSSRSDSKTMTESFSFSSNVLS
T4 sequence (P32245 whole entry): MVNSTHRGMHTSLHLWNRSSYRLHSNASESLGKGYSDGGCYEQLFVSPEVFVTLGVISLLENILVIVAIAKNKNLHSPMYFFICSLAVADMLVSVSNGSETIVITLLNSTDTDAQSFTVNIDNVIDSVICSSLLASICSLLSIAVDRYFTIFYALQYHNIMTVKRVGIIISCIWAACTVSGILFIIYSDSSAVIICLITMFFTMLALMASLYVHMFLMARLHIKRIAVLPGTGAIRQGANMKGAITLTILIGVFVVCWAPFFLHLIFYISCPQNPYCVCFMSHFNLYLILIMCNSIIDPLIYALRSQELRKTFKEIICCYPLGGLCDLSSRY
T5 sequence (P33032 whole entry): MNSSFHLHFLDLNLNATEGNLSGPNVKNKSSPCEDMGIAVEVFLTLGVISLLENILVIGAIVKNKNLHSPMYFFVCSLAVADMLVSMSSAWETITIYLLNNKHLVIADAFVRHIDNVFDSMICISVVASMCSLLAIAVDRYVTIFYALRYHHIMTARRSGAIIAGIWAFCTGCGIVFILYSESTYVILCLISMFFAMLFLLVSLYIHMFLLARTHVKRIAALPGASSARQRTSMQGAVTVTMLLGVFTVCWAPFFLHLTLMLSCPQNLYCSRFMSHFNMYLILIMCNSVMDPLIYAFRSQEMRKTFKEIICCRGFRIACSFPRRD
T10 sequence (P41146 whole entry): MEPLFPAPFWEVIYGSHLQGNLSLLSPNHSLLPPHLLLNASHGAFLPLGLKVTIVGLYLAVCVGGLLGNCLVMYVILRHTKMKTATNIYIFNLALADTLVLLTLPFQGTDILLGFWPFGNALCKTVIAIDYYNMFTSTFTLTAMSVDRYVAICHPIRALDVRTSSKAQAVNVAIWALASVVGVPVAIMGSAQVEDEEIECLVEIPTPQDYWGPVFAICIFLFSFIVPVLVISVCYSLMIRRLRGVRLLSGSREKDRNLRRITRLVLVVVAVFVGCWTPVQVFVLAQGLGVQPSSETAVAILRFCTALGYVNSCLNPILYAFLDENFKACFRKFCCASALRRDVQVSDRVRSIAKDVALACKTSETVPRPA
T7 sequence (P35372 whole entry): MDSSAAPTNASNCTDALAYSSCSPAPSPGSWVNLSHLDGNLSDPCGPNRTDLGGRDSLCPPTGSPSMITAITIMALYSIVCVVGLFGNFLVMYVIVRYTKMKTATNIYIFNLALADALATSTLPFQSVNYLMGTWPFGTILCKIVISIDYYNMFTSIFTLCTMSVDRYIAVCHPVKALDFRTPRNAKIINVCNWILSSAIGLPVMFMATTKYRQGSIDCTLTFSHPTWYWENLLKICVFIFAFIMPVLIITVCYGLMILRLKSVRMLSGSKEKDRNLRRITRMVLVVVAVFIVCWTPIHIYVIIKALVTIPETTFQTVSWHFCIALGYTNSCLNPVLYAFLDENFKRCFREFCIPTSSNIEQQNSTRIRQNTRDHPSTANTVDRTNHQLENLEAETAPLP
T1 sequence (P41143 whole entry): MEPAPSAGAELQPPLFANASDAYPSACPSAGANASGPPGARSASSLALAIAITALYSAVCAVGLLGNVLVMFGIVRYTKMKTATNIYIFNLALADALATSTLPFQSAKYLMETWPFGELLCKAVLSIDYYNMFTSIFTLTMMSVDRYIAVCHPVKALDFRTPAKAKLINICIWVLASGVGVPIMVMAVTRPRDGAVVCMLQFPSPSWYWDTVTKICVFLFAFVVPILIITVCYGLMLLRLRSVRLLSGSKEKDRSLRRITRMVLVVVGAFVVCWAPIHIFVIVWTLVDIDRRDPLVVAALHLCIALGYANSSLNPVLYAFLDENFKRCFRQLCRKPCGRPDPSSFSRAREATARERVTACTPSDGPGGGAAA
T3 sequence (P41968 whole entry): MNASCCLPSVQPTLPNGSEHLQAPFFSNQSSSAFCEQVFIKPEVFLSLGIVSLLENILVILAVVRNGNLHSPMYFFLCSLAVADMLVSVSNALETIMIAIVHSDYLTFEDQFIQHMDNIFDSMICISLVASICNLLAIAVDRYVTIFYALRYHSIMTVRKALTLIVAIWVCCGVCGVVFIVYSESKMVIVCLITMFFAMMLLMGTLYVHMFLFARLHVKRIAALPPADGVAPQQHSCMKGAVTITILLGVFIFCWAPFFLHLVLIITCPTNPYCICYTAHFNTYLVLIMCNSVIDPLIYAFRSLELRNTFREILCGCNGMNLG

Row | Structure (SMILES) | A1: inhibition of radioligand binding, human δ-opioid (DOP) [1] | A2: inhibition of radioligand binding, human κ-opioid (KOP) [2] | A3: inhibition of radioligand binding, human melanocortin (MC3) [3] | A4: inhibition of radioligand binding, human melanocortin (MC4) [4] | A5: inhibition of radioligand binding, human melanocortin (MC5) [5] | A6: inhibition of radioligand binding, human melanin-concentrating hormone (MCH1) [6] | A7: inhibition of radioligand binding, human μ-opioid (MOP) [7] | A8: inhibition of radioligand binding, human neurokinin (NK1) [8] | A9: inhibition of radioligand binding, human neuropeptide Y (NPY-Y1) [9] | A10: inhibition of radioligand binding, human opioid (ORL1) [10] | A11: inhibition of radioligand binding, mouse urotensin (mUR2) [11] | also measured
1 | CSC1OC(COCc2ccc(Cl)cc2)C(O)C(OCc2ccc3ccccc3c2)C1NC(=O)CCNC(=N)N (stereo not shown) [compound 309] | − (“−” indicates less than 50% inhibition at 10 μM) | − (“−” indicates less than 50% inhibition at 10 μM) | − (“−” indicates less than 50% inhibition at 10 μM) | − (“−” indicates less than 50% inhibition at 10 μM) | + (“+” indicates greater than 50% inhibition at 10 μM) | − (“−” indicates less than 50% inhibition at 10 μM) | − (“−” indicates less than 50% inhibition at 10 μM) | + (“+” indicates greater than 50% inhibition at 10 μM) | − (“−” indicates less than 50% inhibition at 10 μM) | − (“−” indicates less than 50% inhibition at 10 μM) | − (“−” indicates less than 50% inhibition at 10 μM) | 
2 | O=C(N[C@H]1C(NC(=O)C2CCNCC2)O[C@H](CO)[C@@H](O)[C@@H]1OCc1cccc2ccccc12)c1ccccc1 (stereo partly shown) [compound 363] | − (“−” indicates less than 50% inhibition at 10 μM) | − (“−” indicates less than 50% inhibition at 10 μM) | − (“−” indicates less than 50% inhibition at 10 μM) | − (“−” indicates less than 50% inhibition at 10 μM) | − (“−” indicates less than 50% inhibition at 10 μM) | − (“−” indicates less than 50% inhibition at 10 μM) | − (“−” indicates less than 50% inhibition at 10 μM) | + (“+” indicates greater than 50% inhibition at 10 μM) | − (“−” indicates less than 50% inhibition at 10 μM) | − (“−” indicates less than 50% inhibition at 10 μM) | − (“−” indicates less than 50% inhibition at 10 μM) | 
3 | COCC1OC(OCc2ccc3ccccc3c2)C(NC(=O)CCCNC(=N)N)C(OCc2ccc3ccccc3c2)C1O (stereo not shown) [compound 250] |  |  |  |  |  |  |  |  |  |  |  | A1: inhibition of radioligand binding ([1]; FlashPlate): − (“−” indicates less than 50% inhibition at 10 μM); A2: inhibition of radioligand binding ([2]; filtration): − (“−” indicates less than 50% inhibition at 10 μM); A3: inhibition of radioligand binding ([3]; FlashPlate): − (“−” indicates less than 50% inhibition at 10 μM); A4: inhibition of radioligand binding ([4]; FlashPlate): + (“+” indicates greater than 50% inhibition at 10 μM); A5: inhibition of radioligand binding ([5]; FlashPlate): + (“+” indicates greater than 50% inhibition at 10 μM); A6: inhibition of radioligand binding ([6]; [125I]-S36057, FlashPlate): + (“+” indicates greater than 50% inhibition at 10 μM); A7: inhibition of radioligand binding ([7]; FlashPlate): − (“−” indicates less than 50% inhibition at 10 μM); A8: inhibition of radioligand binding ([8]; filtration): + (“+” indicates greater than 50% inhibition at 10 μM); A9: inhibition of radioligand binding ([9]; FlashPlate): − (“−” indicates less than 50% inhibition at 10 μM); A10: inhibition of radioligand binding ([10]; FlashPlate): + (“+” indicates greater than 50% inhibition at 10 μM); A11: inhibition of radioligand binding ([11]; FlashPlate): − (“−” indicates less than 50% inhibition at 10 μM)
4 | NCCCC(=O)NC1C(OCc2ccc(Cl)cc2)OC(COCc2ccc3ccccc3c2)C(O)C1OCc1ccc2ccccc2c1 (single isomer, unassigned) [compound 495] | − (“−” indicates less than 50% inhibition at 10 μM) | − (“−” indicates less than 50% inhibition at 10 μM) | + (“+” indicates greater than 50% inhibition at 10 μM) | + (“+” indicates greater than 50% inhibition at 10 μM) | + (“+” indicates greater than 50% inhibition at 10 μM) | + (“+” indicates greater than 50% inhibition at 10 μM) | + (“+” indicates greater than 50% inhibition at 10 μM) | + (“+” indicates greater than 50% inhibition at 10 μM) | − (“−” indicates less than 50% inhibition at 10 μM) | + (“+” indicates greater than 50% inhibition at 10 μM) | − (“−” indicates less than 50% inhibition at 10 μM) | 
5 | CSC1O[C@H](COCc2ccc(Cl)cc2)[C@@H](O)[C@@H](OCc2ccc(-c3ccccc3)cc2)[C@H]1NC(=O)CCN (stereo partly shown) [compound 290] | − (“−” indicates less than 50% inhibition at 10 μM) | − (“−” indicates less than 50% inhibition at 10 μM) | − (“−” indicates less than 50% inhibition at 10 μM) | − (“−” indicates less than 50% inhibition at 10 μM) | + (“+” indicates greater than 50% inhibition at 10 μM) | − (“−” indicates less than 50% inhibition at 10 μM) | − (“−” indicates less than 50% inhibition at 10 μM) | + (“+” indicates greater than 50% inhibition at 10 μM) | − (“−” indicates less than 50% inhibition at 10 μM) | − (“−” indicates less than 50% inhibition at 10 μM) | − (“−” indicates less than 50% inhibition at 10 μM) | 
